How the values were obtained:
[1] = test system: SMN2 minigene mRNA (SMN2-A minigene) in HEK293H cells; assay: SMN2 minigene mRNA splicing RT-qPCR assay in cultured cells; format: cell-based, human; settings: Homo sapiens, HEK293-H; concentration increasing full length SMN2 mRNA 1.5-fold relative to vehicle-treated cells; HEK293H cells with SMN2-A minigene, 24 hours, 7-point concentration data; read-out: EC1.5x for production of full length SMN2 mRNA
Outline: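 HEK293H cells stably carrying the SMN2-A minigene were treated for 24 h at 37 °C with a 7-point, 3.16-fold dilution series of compound. Multiplex RT-qPCR measured exon 7-containing minigene FL mRNA against GAPDH, expressed relative to vehicle by modified ΔΔCt; the EC1.5× is the concentration giving a 1.5-fold increase.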

[2] = test system: Smn protein in SMA patient fibroblast cells (GM03813); assay: Smn protein assay in cultured cells (SMN HTRF); format: cell-based, human; settings: SMA patient fibroblast cells, 48 hours; for EC1.5x for Smn protein expression: 7-point concentration curve, SMN HTRF, concentration producing 1.5 times Smn protein vs DMSO vehicle control; for maximum fold (Fold) increase of Smn protein: 7-point concentration data, fold relative to vehicle control
Outline: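 SMA patient fibroblasts (5,000 cells/well, DMEM-10% FBS) were treated for 48 h at 37 °C with a 7-point, 3.16-fold dilution series in triplicate. RIPA lysates were probed by HTRF (anti-SMN d2/kryptate, overnight, room temperature), reading 665/620 nm. EC1.5× is the concentration giving 1.5-fold Smn over DMSO vehicle.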

| melting point | Structure (SMILES) | EC (1.5-fold increase) [1] | EC1.5x for Smn protein expression [2] | maximum fold (Fold) increase of Smn protein [2] |
| --- | --- | --- | --- | --- |
| 292 to 294 °C | Cc1nc2ccc(-c3cc(=O)n4cc(N5CCN(C)CC5)ccc4n3)cc2[nH]1 [Compound 689, 2-(2-methyl-1H-benzimidazol-6-yl)-7-(4-methylpiperazin-1-yl)-4H-pyrido[1,2-a]pyrimidin-4-one] | 0.1 to 0.3 µM | *** (an EC1.5× between >0.3 μM and ≤1 μM is indicated by three stars (***)) | **** (a fold increase between >1.5 and ≤1.65 is indicated by four stars (****)) |
| 283 to 285 °C | CCN1CCN(c2ccc3nc(-c4ccc5nc(C)[nH]c5c4)cc(=O)n3c2)CC1 [Compound 690, 7-(4-ethylpiperazin-1-yl)-2-(2-methyl-1H-benzimidazol-6-yl)-4H-pyrido[1,2-a]pyrimidin-4-one] | < 0.1 µM | *** (an EC1.5× between >0.3 μM and ≤1 μM is indicated by three stars (***)) | **** (a fold increase between >1.5 and ≤1.65 is indicated by four stars (****)) |
| 215 to 217 °C | Cc1cn2cc(-c3cc(=O)n4nc(C5CCNCC5)ccc4n3)cc(C)c2n1 [Compound 691, 2-(2,8-dimethylimidazo[1,2-a]pyridin-6-yl)-7-(piperidin-4-yl)-4H-pyrimido[1,2-b]pyridazin-4-one] | < 0.1 µM | **** (an EC1.5x≤0.3 μM is indicated by four stars (****)) | ***** (a fold increase >1.65 is indicated by five stars (*****)) |
| 249 to 251 °C | Cc1cn2cc(-c3cc(=O)n4nc(C5CCNCC5)ccc4n3)ccc2n1 [Compound 692, 2-(2-methylimidazo[1,2-a]pyridin-6-yl)-7-(piperidin-4-yl)-4H-pyrimido[1,2-b]pyridazin-4-one] | 0.1 to 0.3 µM | *** (an EC1.5× between >0.3 μM and ≤1 μM is indicated by three stars (***)) | ***** (a fold increase >1.65 is indicated by five stars (*****)) |
| 236 to 238 °C | CCc1nc(C)cn2nc(-c3cc(=O)n4cc(C5CCN(C6COC(C)(C)OC6)CC5)ccc4n3)cc12 [Compound 693, 7-[1-(2,2-dimethyl-1,3-dioxan-5-yl)piperidin-4-yl]-2-(4-ethyl-6-methylpyrazolo[1,5-a]pyrazin-2-yl)-4H-pyrido[1,2-a]pyrimidin-4-one] | 1 to 3 µM | ** (an EC1.5× between >1 μM and ≤3 μM is indicated by two stars (**)) | **** (a fold increase between >1.5 and ≤1.65 is indicated by four stars (****)) |
| 254 to 256 °C | Cc1cn2cc(-c3cc(=O)n4cc(N5C[C@@H](C)N[C@@H](C)C5)ccc4n3)cc2c(C)n1 [Compound 695, 7-[(3R,5S)-3,5-dimethylpiperazin-1-yl]-2-(1,3-dimethylpyrrolo[1,2-a]pyrazin-7-yl)-4H-pyrido[1,2-a]pyrimidin-4-one] | < 0.1 µM | **** (an EC1.5x≤0.3 μM is indicated by four stars (****)) | ***** (a fold increase >1.65 is indicated by five stars (*****)) |
| 221 to 224 °C | CCc1cc(-c2cc(=O)n3cc(C4CCNCC4)ccc3n2)cn2cc(C)nc12 [Compound 696, 2-(8-ethyl-2-methylimidazo[1,2-a]pyridin-6-yl)-7-(piperidin-4-yl)-4H-pyrido[1,2-a]pyrimidin-4-one] | < 0.1 µM | **** (an EC1.5x≤0.3 μM is indicated by four stars (****)) | ***** (a fold increase >1.65 is indicated by five stars (*****)) |
| 214 to 218 °C | CCc1cc(-c2cc(=O)n3cc(C4CCN(C)CC4)ccc3n2)cn2cc(C)nc12 [Compound 697, 2-(8-ethyl-2-methylimidazo[1,2-a]pyridin-6-yl)-7-(1-methylpiperidin-4-yl)-4H-pyrido[1,2-a]pyrimidin-4-one] | < 0.1 µM | **** (an EC1.5x≤0.3 μM is indicated by four stars (****)) | ***** (a fold increase >1.65 is indicated by five stars (*****)) |
| 196 to 200 °C | CCc1cc(-c2cc(=O)n3cc(C4CCN(CC)CC4)ccc3n2)cn2cc(C)nc12 [Compound 698, 2-(8-ethyl-2-methylimidazo[1,2-a]pyridin-6-yl)-7-(1-ethylpiperidin-4-yl)-4H-pyrido[1,2-a]pyrimidin-4-one] | < 0.1 µM | **** (an EC1.5x≤0.3 μM is indicated by four stars (****)) | ***** (a fold increase >1.65 is indicated by five stars (*****)) |
| 244 to 247 °C | CCc1cc(-c2cc(=O)n3cc(C4CCN(CCO)CC4)ccc3n2)cn2cc(C)nc12 [Compound 699, 2-(8-ethyl-2-methylimidazo[1,2-a]pyridin-6-yl)-7-[1-(2-hydroxyethyl)piperidin-4-yl]-4H-pyrido[1,2-a]pyrimidin-4-one] | < 0.1 µM | **** (an EC1.5x≤0.3 μM is indicated by four stars (****)) | ***** (a fold increase >1.65 is indicated by five stars (*****)) |
| 217 to 220 °C | CCc1cc(-c2cc(=O)n3cc(N4CCN(C)[C@H](C)C4)ccc3n2)cn2cc(C)nc12 [Compound 700, 7-[(3R)-3,4-dimethylpiperazin-1-yl]-2-(8-ethyl-2-methylimidazo[1,2-a]pyridin-6-yl)-4H-pyrido[1,2-a]pyrimidin-4-one] | < 0.1 µM | **** (an EC1.5x≤0.3 μM is indicated by four stars (****)) | ***** (a fold increase >1.65 is indicated by five stars (*****)) |
| 179 to 182 °C | CCc1cc(-c2cc(=O)n3cc(N4CCN(CC)[C@H](C)C4)ccc3n2)cn2cc(C)nc12 [Compound 701, 2-(8-ethyl-2-methylimidazo[1,2-a]pyridin-6-yl)-7-[(3R)-4-ethyl-3-methylpiperazin-1-yl]-4H-pyrido[1,2-a]pyrimidin-4-one] | < 0.1 µM | **** (an EC1.5x≤0.3 μM is indicated by four stars (****)) | ***** (a fold increase >1.65 is indicated by five stars (*****)) |
| 224 to 233 °C | Cc1cn2nc(-c3cc(=O)n4cc(C5CCN(CCO)CC5)cc(C)c4n3)cc2c(C)n1 [Compound 703, 2-(4,6-dimethylpyrazolo[1,5-a]pyrazin-2-yl)-7-[1-(2-hydroxyethyl)piperidin-4-yl]-9-methyl-4H-pyrido[1,2-a]pyrimidin-4-one] | < 0.1 µM | **** (an EC1.5x≤0.3 μM is indicated by four stars (****)) | ***** (a fold increase >1.65 is indicated by five stars (*****)) |
| 228 to 237 °C | Cc1cn2nc(-c3cc(=O)n4cc(C5CCN(C6CCC6)CC5)cc(C)c4n3)cc2c(C)n1 [Compound 704, 7-(1-cyclobutylpiperidin-4-yl)-2-(4,6-dimethylpyrazolo[1,5-a]pyrazin-2-yl)-9-methyl-4H-pyrido[1,2-a]pyrimidin-4-one] | 0.1 to 0.3 µM | **** (an EC1.5x≤0.3 μM is indicated by four stars (****)) | **** (a fold increase between >1.5 and ≤1.65 is indicated by four stars (****)) |
| 222 to 227 °C | Cc1cc(C2CCN(C)CC2)cn2c(=O)cc(-c3ccc4nn(C)cc4c3)nc12 [Compound 705, 9-methyl-2-(2-methyl-2H-indazol-5-yl)-7-(1-methylpiperidin-4-yl)-4H-pyrido[1,2-a]pyrimidin-4-one] | < 0.1 µM | **** (an EC1.5x≤0.3 μM is indicated by four stars (****)) | ***** (a fold increase >1.65 is indicated by five stars (*****)) |
| 237 to 239 °C | Cc1cn2nc(-c3cc(=O)n4cc(N5CCC(C)(N(C)C)CC5)ccc4n3)cc2c(C)n1 [Compound 706, 7-[4-(dimethylamino)-4-methylpiperidin-1-yl]-2-(4,6-dimethylpyrazolo[1,5-a]pyrazin-2-yl)-4H-pyrido[1,2-a]pyrimidin-4-one] | < 0.1 µM | **** (an EC1.5x≤0.3 μM is indicated by four stars (****)) | ***** (a fold increase >1.65 is indicated by five stars (*****)) |
| 187 to 189 °C | CCNC1(C)CCN(c2ccc3nc(-c4cc5c(C)nc(C)cn5n4)cc(=O)n3c2)CC1 [Compound 707, 2-(4,6-dimethylpyrazolo[1,5-a]pyrazin-2-yl)-7-[4-(ethylamino)-4-methylpiperidin-1-yl]-4H-pyrido[1,2-a]pyrimidin-4-one] | < 0.1 µM | **** (an EC1.5x≤0.3 μM is indicated by four stars (****)) | ***** (a fold increase >1.65 is indicated by five stars (*****)) |
